# Results published in paper PMC5384220 (Nature Communications, 2017).
# “Also recorded” adds a separate entry of the source.
# Tests used:
# [1] = system: H3K9me3/H3K36me3 in HeLa cells; test: Immunofluorescence of global histone methylation, 72 h dosing; format: cell-based; conditions: 72 h treatment
# Source text: Supplementary Figure 12. Immunofluorescence analysis of global histone methylation levels after 72hr dosing of cyclic peptides in HeLa cells. (a)-(c) Immunofluorescence analysis of HeLa cells dosed with cyclic peptides for 72 hrs. Maximum intensity projected images of 3D confocal z-stacks showing nuclei stained with […]
# DMSO and CP2 treated cells. Bar represents 50µm. Global H3K9me3 (d) and associated nuclei count for the […]
# staining, (h) global H3K4me3 and (i) global H3K27me3 staining. An increase in fluorescence intensity, […]
# over certain concentration ranges. Average +/- s.e.m (n > 100 cells) are shown except at concentrations of […]
# A generic 2OG oxygenase inhibitor 5-carboxy-8-
# Immunofluorescence (IF) assay […]
# with 0.5% FBS and 1% Pen-Strep. […]
# grade plate (Becton Dickinson) and left overnight to adhere. Cells were dosed with cyclic […]
# After 30min blocking (3% FBS in […]
# three times after each incubation. […]
# Image acquisition and analysis […]
# image immunostained cells in a 96-well plate configuration. For each well, the system […]
# The average intensity for each […]
# analysed using GraphPad Prism 5. […]
# [2] = molecular target: T1, full-length KDM4A (residues 1-1,064) (Homo sapiens, UniProt O75164); test: MALDI-TOF MS demethylation assay with full-length KDM4A; format: biochemical; conditions: CP2 10 µM; H3K9me3 and H3K36me3 peptides 10 µM; 1 h 37°C
# T1 construct: full-length KDM4A (residues 1–1,064) purified from HEK293T cells; made in house; host or cells: HEK293T (transient transfection, anti-FLAG M2 immunoprecipitation)
# T1 sequence (O75164 1-1064): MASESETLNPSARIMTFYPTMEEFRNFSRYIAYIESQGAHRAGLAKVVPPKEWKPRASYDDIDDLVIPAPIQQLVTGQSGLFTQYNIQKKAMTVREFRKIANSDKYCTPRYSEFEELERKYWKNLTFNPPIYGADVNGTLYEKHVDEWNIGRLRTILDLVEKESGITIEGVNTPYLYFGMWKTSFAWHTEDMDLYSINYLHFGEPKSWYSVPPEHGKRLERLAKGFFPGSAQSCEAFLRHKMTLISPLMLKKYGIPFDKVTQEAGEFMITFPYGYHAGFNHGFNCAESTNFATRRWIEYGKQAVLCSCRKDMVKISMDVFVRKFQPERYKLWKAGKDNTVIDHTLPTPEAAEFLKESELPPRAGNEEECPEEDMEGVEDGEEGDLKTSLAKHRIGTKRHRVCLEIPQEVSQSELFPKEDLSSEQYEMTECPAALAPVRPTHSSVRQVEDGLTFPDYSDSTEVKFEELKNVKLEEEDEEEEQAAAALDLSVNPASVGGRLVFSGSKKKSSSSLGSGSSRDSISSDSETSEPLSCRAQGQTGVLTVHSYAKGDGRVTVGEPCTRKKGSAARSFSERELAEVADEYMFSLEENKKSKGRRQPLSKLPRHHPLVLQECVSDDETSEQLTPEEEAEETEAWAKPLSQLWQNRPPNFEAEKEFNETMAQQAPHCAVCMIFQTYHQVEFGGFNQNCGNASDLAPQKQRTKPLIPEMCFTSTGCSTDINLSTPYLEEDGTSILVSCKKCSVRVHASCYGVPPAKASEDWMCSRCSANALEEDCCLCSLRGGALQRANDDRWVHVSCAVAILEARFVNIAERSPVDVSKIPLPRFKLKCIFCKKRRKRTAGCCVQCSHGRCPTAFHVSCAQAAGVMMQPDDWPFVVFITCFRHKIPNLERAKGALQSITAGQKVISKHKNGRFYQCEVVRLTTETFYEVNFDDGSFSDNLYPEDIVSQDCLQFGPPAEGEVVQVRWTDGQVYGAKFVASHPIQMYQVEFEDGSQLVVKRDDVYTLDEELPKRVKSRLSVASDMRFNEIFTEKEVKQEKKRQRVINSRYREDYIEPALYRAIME
# Source text: N-terminally Hexa-His-tagged KDM4A (His-KDM4A1–359) was produced and purified as described. The KDM4A gene encoding for KDM4A protein (residues 1-359) was cloned into the pNIC-Bio3 plasmid, which incorporates a C-terminal AviTag and expressed with biotin supplement in BL21(DE3)Rosetta co-transfected with pCDF-BirA[32]. His-KDM4A with biotin (His-KDM4A-Bio) was purified using nickel affinity chromatography. Complete (>95%) biotinylation of KDM4A was confirmed using electrospray ionization–MS (Waters Micromass LCT Premier). […] The full-length FLAG-tagged KDM4A1–1,064 (ref. [15]) was produced in HEK293T cells. HEK293T cells were grown to 80% confluency in DMEM medium (Sigma) supplemented with Glutamax (Life Technologies), 10% fetal bovine serum (FBS, Sigma). FLAG-tagged KDM4A was transfected using polyethyleneimine. Cells were harvested after 48 h, washed with PBS (Sigma) and lysed (45 min, 4 °C) in 50 mM HEPES (pH 7.5), 150 mM NaCl buffer containing protease inhibitor cocktail (Sigma), 10 μM DNase (Sigma) and 0.1% NP40 (Roche). FLAG-tagged KDM4A was purified by immunoprecipitation using anti-FLAG M2 magnetic beads (Sigma) and washed in 50 mM HEPES (pH 7.5) 150 mM NaCl. The final wash was performed in 50 mM HEPES (pH 7.5) and the resin was used as an enzyme source for the full-length KDM4A.
# KDM4A in vitro. […]
# (pH 7.5) at 37°C for 1 h. The assay products were analysed by MALDI-TOF MS. […]
# His-KDM4A1-359 = molecular target: T2, His-KDM4A1-359 (Homo sapiens, UniProt O75164); test: Formaldehyde dehydrogenase coupled KDM assay (mode of inhibition); format: biochemical
# T2 construct: using 0.5 μM His-KDM4A1–359; made in house
# T2 sequence (O75164 1-359): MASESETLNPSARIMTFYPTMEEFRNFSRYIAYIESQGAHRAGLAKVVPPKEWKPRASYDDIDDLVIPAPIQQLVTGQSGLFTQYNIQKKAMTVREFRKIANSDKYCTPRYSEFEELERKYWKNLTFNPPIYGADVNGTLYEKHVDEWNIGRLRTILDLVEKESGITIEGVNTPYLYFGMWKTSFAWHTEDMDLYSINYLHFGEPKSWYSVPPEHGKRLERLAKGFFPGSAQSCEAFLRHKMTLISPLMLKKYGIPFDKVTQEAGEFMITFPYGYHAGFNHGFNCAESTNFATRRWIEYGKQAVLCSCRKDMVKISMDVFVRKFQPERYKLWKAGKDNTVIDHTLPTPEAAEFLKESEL
# Experimental: The formaldehyde dehydrogenase coupled KDM assay was used to determine the mode of inhibition[34], using 0.5 μM His-KDM4A1–359. Prism 5.0 (GraphPad) was used to fit in mix-mode inhibition, to determine the kinetic parameters. Binding constants for CPs and H3(1–15)K9me3 were measured using biolayer interferometry (OctetRed 384, ForteBio) in buffer (50 mM HEPES (pH 7.5), 150 mM NaCl, 10 μM ammonium iron(II) sulphate). His-KDM4A1–359-Bio (70 nM) was immobilized onto super streptavidin biosensor and subjected to different peptide concentrations in buffer. Data analysis was performed using ForteBio Data Aalysis (v6.4).
# KDM4A1-359 was immobilized and analysed for binding to peptides at different concentrations.
# The concentration of KDM4A in the assay mixture was 0.5 µM.
sequence,measurement,setting,value
DYVYNTRSGWRWYTC [CP2],Change in global H3K9me3/H3K36me3 levels,[1],did not have any apparent effect; also recorded: no discernible changes
same,Inhibition of demethylation by full-length KDM4A,[2],inhibits
same,α (mixed-mode inhibition parameter),"His-KDM4A1-359; FDH assay, 0.5 µM KDM4A",4.73
same,Mode of inhibition with respect to H3K9me3,His-KDM4A1-359; kinetic analyses,competitive inhibitor
